Data taken from article PMC6832134, “Discovery of Novel Integrase Inhibitors Acting outside the Active Site Through High-Throughput Screening” (Molecules, 2019).
Values joined by “and” are separate entries in the source; they are usually repeats but may differ in a detail not shown here. Identical values can stand only once. Like-named read-outs stand apart in the source and are kept apart here.

Legend:
HIV-1 IN mutant N155H [1] = assay: biochemical; type: biochemical; conditions: N155H vs WT, Figure 2B
Method: (§1) IN reactions were carried out by adding drugs or an equivalent volume of 100% DMSO (dimethyl sulfoxide, used as the drug solvent) to a mixture of 20 nM duplex DNA (21T/21B) and 400 nM IN in 50 mM MOPS pH 7.2, 7.5 mM MgCl2, and 14 mM 2-mercaptoethanol. Reactions were performed at 37 °C for 2 h and quenched by addition of an equal volume of loading buffer [formamide containing 1% SDS (sodium dodecyl sulfate), 0.25% bromophenol blue, and xylene cyanol]. Reaction products were separated in 16% polyacrylamide denaturing sequencing gels. Dried gels were visualized using a Typhoon 8600 (GE Healthcare, Piscataway, NJ, USA). Densitometric analyses were performed using the ImageQuant 5.1 software from GE Healthcare. Data analyses (linear regression, IC50 determination, and standard deviation) were performed using Prism 6.05 software from GraphPad.

HIV-1 IN [2] = molecular target: T1, HIV-1 IN (Human immunodeficiency virus type 1 group M subtype B, UniProt P12497); assay: Gel-based IN 3'-processing assay; type: biochemical; conditions: at least three independent experiments, read-out: In Vitro IC50 +/−SD, 3'-P
T1 construct: 250 nM of recombinant HIV-1 integrase; made in house; host or cells: E. coli RosettaII
Method: as §1

HIV-1 IN (WT) = molecular target: T2, HIV-1 IN (WT) (Human immunodeficiency virus type 1 group M subtype B, UniProt P12497); assay: Gel-based IN strand transfer assay, WT enzyme; type: biochemical; conditions: gel-based assay, coupled ST, at least three independent experiments; read-out: In Vitro IC50 +/−SD, ST
T2 construct: 250 nM of recombinant HIV-1 integrase; made in house; host or cells: E. coli RosettaII
Method: as §1

[3] = molecular target: T3, HIV-1 IN mutant G140S/Q148H (Human immunodeficiency virus type 1 group M subtype B, UniProt P12497, G1287S/Q1295H); assay: Gel-based IN strand transfer assay, G140S/Q148H mutant; type: biochemical
T3 construct: RAL-resistant HIV-1 mutant integrases; made in house; host or cells: E. coli RosettaII
Method: as §1

HIV-1 IN mutant Y143R = molecular target: T4, HIV-1 IN mutant Y143R (Human immunodeficiency virus type 1 group M subtype B, UniProt P12497, Y1290R); assay: Gel-based IN strand transfer assay, Y143R mutant; type: biochemical
T4 construct: RAL-resistant HIV-1 mutant integrases; made in house; host or cells: E. coli RosettaII
Method: as §1

HIV-1 IN mutant N155H [4] = molecular target: T5, HIV-1 IN mutant N155H (Human immunodeficiency virus type 1 group M subtype B, UniProt P12497, N1302H); assay: biochemical; type: biochemical
T5 construct: RAL-resistant HIV-1 mutant integrases; made in house; host or cells: E. coli RosettaII
Method: as §1

[5] = test system: VSV pseudo-typed HIV-1 virus particles; assay: organism not typed; type: cell-based; conditions: for EC50: read-out: Ex Vivo Antiviral Activity EC50
HIV-1 IN [6] = molecular target: T1, HIV-1 IN; assay: Synergy test with the active site inhibitor MK-2048; type: biochemical; conditions: subinhibitory dose of stilbene disulfonic acid derivative; IC50 of MK-2048 not affected; data not shown
in vitro = conditions: human
HIV-1 integrase = molecular target: T6, HIV-1 integrase (Human immunodeficiency virus type 1 group M subtype B, UniProt P12497); assay: Electrochemiluminescent integrase strand transfer assay (BioVeris), high-throughput screen; type: biochemical; conditions: for inhibition at 10 µM: single dose 10 µM, read-out: inhibition of IN ST activity
T6 construct: 250 nM of recombinant HIV-1 integrase; made in house; host or cells: E. coli RosettaII
Method: To enable a high-throughput screening, we used the ST assay developed by BioVeris. This proprietary plate-based assay measured stand transfer using electrochemiluminescent technology. First, we validated the assay using HIV-1 IN in the presence of DMSO, or increasing concentrations of a known inhibitor, MA-DKA (also known as 118-D-24, Figure 1A). […] Next, we used MA-DKA as a control in every test plate and screened a large library of molecules. Overall, 3095 compounds were tested as part of the NCI Developmental Therapeutics Program’s small molecule plated sets from the Open Chemical Repository Collection. […] A single dose testing (10 µM) enabled the identification of 130 molecules that inhibited ST by over 50% (light dashed line, Figure 1A). […] NSC153308 is a 2-phenacylsulfanylacetic acid that resembles the diketo acid chemotype. On the other side, NSC119889 is a xanthene derivative similar to V-165 [6]. […] However, the purpose of this study was to identify a new chemotype that might act on IN via a novel mechanism, distinct from known active site inhibitors. Accordingly, we retrieved the chemical structure of the 130 hits and looked for a chemical pattern different from that of conventional strand transfer inhibitors.
This electrochemiluminescent plate-based assay was performed using a BioVeris M-SERIES Analyzer (Gaithersburg, MD, USA). DNA substrates were obtained from BioVeris and used according to the manufacturer’s recommendations. Briefly, a biotinylated donor DNA was incubated for 30 min at 37 °C in the presence of 250 nM of recombinant HIV-1 integrase. Complexes were bound to paramagnetic streptavidin-coated beads (M-280 Dynabeads). After addition of the drug, the integration reaction was initiated by addition of a ruthenium-labeled target DNA. The reaction was carried out for 60 min at 37 °C, before reading on the BioVeris M-SERIES Analyzer.

HIV-1 IN [7] = molecular target: T1, HIV-1 IN; set-up: method as in PMID 12920196; conditions: ref [4], read-out: IC50, ST inhibition, cited from earlier work
HIV-1 IN [8] = molecular target: T1, HIV-1 IN; set-up: method as in PMID 12920196; conditions: regardless of metal cofactor; ref [4]; read-out: IC50, inhibition of 3'-P; cited from earlier work

Cc1nnc(C(=O)NC(C)(C)c2nc(C(=O)NCc3ccc(F)cc3)c(O)c(=O)n2C)o1 [RAL, raltegravir, reference compound]
loss of potency compared to the WT enzyme (HIV-1 IN mutant N155H [1]): one to two orders of magnitude

Nc1ccc(/N=N/c2ccc(/C=C/c3ccc(/N=N/c4ccc(N)c5ccc(S(=O)(=O)O)cc45)cc3S(=O)(=O)O)c(S(=O)(=O)O)c2)c2cc(S(=O)(=O)O)ccc12 [NSC34933]
IC50 (HIV-1 IN [2]): 1.1 ± 0.3 µM | IC50 (HIV-1 IN (WT)): 0.5 ± 0.2 µM | IC50 [3]: 0.32 µM | IC50 (HIV-1 IN mutant Y143R): 0.095 µM | IC50 (HIV-1 IN mutant N155H [4]): 0.091 µM | Selectivity Index SI [5]: >166 | EC50 [5]: 0.6 µM | synergy with active site inhibitor MK-2048 (HIV-1 IN [6]): could not see any cooperative effect | CC50 (in vitro): > 100 µM

O=S(=O)(O)c1cc(/N=N/c2cc(S(=O)(=O)O)c3cccnc3c2O)ccc1/C=C/c1ccc(/N=N/c2cc(S(=O)(=O)O)c3cccnc3c2O)cc1S(=O)(=O)O [NSC638352]
inhibition at 10 µM (HIV-1 integrase): 67.2%

O=C(O)CSCC(=O)c1ccccc1 [NSC153308]
inhibition at 10 µM (HIV-1 integrase): 99.5%

CCOc1ccc(/N=N/c2ccc(/C=C/c3ccc(/N=N/c4ccc(OCC)cc4)cc3S(=O)(=O)O)c(S(=O)(=O)O)c2)cc1 [NSC47745]
IC50 (HIV-1 IN [2]): ~3 µM and 3.2 µM | IC50 (HIV-1 IN (WT)): ~3 µM and 3.1 µM | Selectivity Index SI [5]: >6.5 | EC50 [5]: 15.3 µM | CC50 (in vitro): > 100 µM

O=C(O)c1c(Br)c(Br)c(Br)c(Br)c1C1c2ccc(O)cc2Oc2cc(O)ccc21 [NSC119889]
inhibition at 10 µM (HIV-1 integrase): 98.5%

O=C(Nc1ccc(Sc2ccc(/N=N/c3c(O)c(S(=O)(=O)O)cc4cc(S(=O)(=O)O)ccc34)cc2)cc1)c1ccc(/N=N/c2c(O)ccc3c(S(=O)(=O)O)cc(S(=O)(=O)O)cc23)cc1 [NSC76027]
inhibition at 10 µM (HIV-1 integrase): 62.8%

O=[N+]([O-])c1ccc(/C=C/c2ccc([N+](=O)[O-])cc2S(=O)(=O)O)c(S(=O)(=O)O)c1 [NSC163175]
IC50 (HIV-1 IN [2]): > 111 µM | IC50 (HIV-1 IN (WT)): > 111 µM

Nc1ccc(/C=C/c2ccc(N)cc2S(=O)(=O)O)c(S(=O)(=O)O)c1 [NSC163]
IC50 (HIV-1 IN [2]): > 111 µM | IC50 (HIV-1 IN (WT)): > 111 µM

O=C(O)C(=O)CC(=O)c1cccn1Cc1ccc(F)cc1 [MA-DKA]
inhibition of IN ST activity (HIV-1 integrase; at 10 µM, obtained from linear regression of the dose response in Figure 1A): 94.8% | IC50 (HIV-1 integrase; electrochemiluminescent plate-based assay, dose response, read-out: IC50, ST inhibition): 0.163 µM | IC50 (HIV-1 IN [7]; magnesium as cofactor): 0.33 µM | IC50 (HIV-1 IN [7]; manganese as cofactor): 0.07 µM | IC50 (HIV-1 IN [8]): 70 µM
